Literature values in patent publication US6355226B1, “Topical treatment of skin disease and eye afflictions” (Advanced Viral Research Corp., priority 1997, dated 2002).

Legend:
[1] = tested on: herpes simplex 1 and 2 (HSV 1 and 2)
[2] = tested on: cytomegalovirus (CM)
[3] = tested on: genital herpes infection; settings: topically administered ointment

For `Nc1nc2c(ncn2COCCO)c(=O)[nH]1` [acyclovir], the “effectiveness against HSV 1 and 2” value [1] is listed as “specifically effective”, the effectiveness against cytomegalovirus [2] is listed as “not against cytomegalovirus” and the “effect on recurrent genital herpes disease” value [3] is listed as “little if any, effect”. For the same compound, the “effectiveness in primary first occurrence of genital herpes infection” value [3] was “seems to be effective”.
